Ki, deltaT and Activity data for 8 molecules are collected here from ChEMBL document CHEMBL4732177 (J Med Chem, 2021).

Structures are written as SMILES. Active and inactive are the calls of the source. No cut-off for these calls is given here. Numbered stars: 1 amine (or outer) side, 2 acyl side, 3 side chain; on linkers, the order of the positions; unused ones are H or OH. Bridge positions count the residues as written; N and C are the ends. Square brackets hold non-standard residues; d marks the D form. Peptide text beside a SMILES is read from it. ξ: configuration not given here. X3 = NCCCC[C@H](N)CN([C@@H](CCCCN)C(=O)[*:2])[*:1]; NMeR = CN[C@@H](CCCNC(=N)N)C(=O)O; Aad = N[C@@H](CCCC(=O)O)C(=O)O; Tle = CC(C)(C)[C@H](N)C(=O)O; ξP = O=C(O)C1CCCN1

For series [1], the target named is Neurotensin receptor type 1 (Mus musculus, UniProt O88319). Briefly: Displacement of [3H]-neurotensin from NTS1 in mouse brain membrane incubated for 30 mins by liquid scintillation counter analysis. It is filed as cell membranes. In general terms: Displacement assays read how much labelled ligand stays bound in the presence of the test substance.
Neurotensin receptor type 1 (Mus musculus, UniProt O88319), sequence (O88319 whole entry): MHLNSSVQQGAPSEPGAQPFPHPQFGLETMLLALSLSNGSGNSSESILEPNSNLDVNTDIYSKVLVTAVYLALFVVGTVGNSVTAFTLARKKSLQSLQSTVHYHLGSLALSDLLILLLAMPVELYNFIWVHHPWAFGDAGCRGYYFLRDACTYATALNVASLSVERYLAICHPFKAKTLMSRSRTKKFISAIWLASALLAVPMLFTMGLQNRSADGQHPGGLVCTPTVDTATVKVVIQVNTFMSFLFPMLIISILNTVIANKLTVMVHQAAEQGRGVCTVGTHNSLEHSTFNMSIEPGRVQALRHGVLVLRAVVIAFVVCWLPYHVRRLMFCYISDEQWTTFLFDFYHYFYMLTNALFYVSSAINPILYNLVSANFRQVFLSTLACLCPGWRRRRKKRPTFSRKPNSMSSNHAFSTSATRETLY
Series [2] can be described thus: Induction of hypothermia in Sprague-Dawley rat assessed as drop in body temperature at 30 microg/kg, IT measured every 10 mins upto 60 mins by thermistor probe analysis. The note with it: in vivo, icv_or_intrathecal, 0.03 mg/kg, dose 30 µg/kg.
Series [3] concerns the target T1, Neurotensin receptor type 1 (Homo sapiens, UniProt P30989). Briefly: Displacement of [3H]-neurotensin from NTS1 in human HT-29 cell membrane incubated for 20 mins by liquid scintillation counter analysis. It is filed as cell membranes.
Series [4] has as its target T1, Neurotensin receptor type 1. Put plainly: Displacement of [125I]Tyr3-neurotensin from human recombinant NTS1 stably expressed in CHO cell membranes. Also noted: species or system Cell membrane.
Series [5] has as its target Neurotensin receptor type 2 (Homo sapiens, UniProt O95665). Put plainly: Binding affinity to NTS2 (unknown origin).
The nature of series [6]: Toxicity in Sprague-Dawley rat assessed as induction of ataxia at 1 microg/kg, IT. The conditions noted are these: in vivo, icv_or_intrathecal, 0.001 mg/kg, dose 1 µg/kg.
Series [7] can be described thus: Toxicity in Sprague-Dawley rat assessed as induction of tremor at 1 microg/kg, IT. The conditions noted are these: in vivo, icv_or_intrathecal, 0.001 mg/kg, dose 1 µg/kg.
Series [8] deals with Rattus norvegicus. Briefly: Antinociceptive activity in Sprague-Dawley rat model of formalin-induced nociception pain assessed as reduction in pain behaviour by measuring less lifting of formalin injected hind paw during acute phase at 1 microg/kg, IT measured for 9 mins. The series is classed as functional, organism-based. The conditions noted are these: dose 1.0 µg/kg.
The nature of series [9]: Toxicity in Sprague-Dawley rat assessed as induction of dizziness at 1 microg/kg, IT. The note with it: in vivo, icv_or_intrathecal, 0.001 mg/kg, dose 1 µg/kg.
Series [10] concerns Rattus norvegicus. Put plainly: Antinociceptive activity in Sprague-Dawley rat model of formalin-induced nociception pain assessed as reduction in pain behaviour by measuring less lifting of formalin injected hind paw during inflammatory phase at 1 microg/kg, IT. The conditions noted are these: dose 1.0 µg/kg. The series is classed as functional, organism-based.
Series [11] is described as follows: Toxicity in Sprague-Dawley rat assessed as induction of drowsiness at 1 microg/kg, IT. The note with it: in vivo, icv_or_intrathecal, 0.001 mg/kg, dose 1 µg/kg.
Series [12] can be described thus: Toxicity in Sprague-Dawley rat assessed as induction of abnormal gait at 1 microg/kg, IT. The note with it: in vivo, icv_or_intrathecal, 0.001 mg/kg, dose 1 µg/kg.
The nature of series [13]: Toxicity in Sprague-Dawley rat assessed as induction of hyperactivity at 1 microg/kg, IT. The conditions noted are these: in vivo, icv_or_intrathecal, 0.001 mg/kg, dose 1 µg/kg.

Neurotensin receptor type 2, sequence (O95665 whole entry): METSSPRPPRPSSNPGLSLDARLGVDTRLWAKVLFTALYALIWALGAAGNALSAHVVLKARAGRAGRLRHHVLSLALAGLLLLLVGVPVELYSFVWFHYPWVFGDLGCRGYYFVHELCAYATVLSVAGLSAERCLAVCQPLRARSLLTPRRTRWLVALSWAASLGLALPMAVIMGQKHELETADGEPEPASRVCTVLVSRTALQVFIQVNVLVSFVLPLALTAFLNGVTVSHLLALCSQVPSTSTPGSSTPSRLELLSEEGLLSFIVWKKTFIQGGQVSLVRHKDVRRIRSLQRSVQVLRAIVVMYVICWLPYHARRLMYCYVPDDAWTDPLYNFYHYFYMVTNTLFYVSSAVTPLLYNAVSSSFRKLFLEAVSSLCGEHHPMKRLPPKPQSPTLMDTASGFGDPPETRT
T1 sequence (P30989 whole entry): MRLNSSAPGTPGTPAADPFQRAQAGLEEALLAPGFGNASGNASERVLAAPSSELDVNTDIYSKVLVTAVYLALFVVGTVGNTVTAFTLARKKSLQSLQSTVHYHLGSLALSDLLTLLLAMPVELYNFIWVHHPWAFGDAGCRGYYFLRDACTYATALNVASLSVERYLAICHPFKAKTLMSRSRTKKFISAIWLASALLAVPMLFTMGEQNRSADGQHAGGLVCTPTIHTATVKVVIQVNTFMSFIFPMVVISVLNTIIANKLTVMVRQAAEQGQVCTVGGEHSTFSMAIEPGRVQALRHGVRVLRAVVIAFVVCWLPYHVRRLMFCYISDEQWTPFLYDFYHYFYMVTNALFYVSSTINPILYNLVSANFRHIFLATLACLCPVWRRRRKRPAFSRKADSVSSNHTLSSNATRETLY

What is called Ki is a dissociation constant, usually derived from enzyme kinetics or from competition with a known ligand. In the case of `CC(C)C[C@@H]1NC(=O)[C@H](C(C)(C)C)NC(=O)[C@H](Cc2c[nH]c3ccccc23)NC(=O)[C@@H]2CCCN2C(=O)[C@H](CCCCN)NC(=O)[C@H](CCCNC(=N)N)NC1=O` (cyclo(KPW[Tle]LR)), the Ki in series [1] is 410 nM.

On to `CCOC(=O)[C@H](CC(C)C)NC(=O)[C@@H](NC(=O)[C@H](Cc1c[nH]c2ccccc12)NC(=O)[C@@H]1CCCN1C(=O)[C@H](CCCCN)NC[C@@H](N)CCCCN)C(C)(C)C` (H-[X3]PW[Tle]L-OEt), for which the deltaT in series [2] came to 3 °C.

In [1], `CC(C)C[C@H](NC(=O)[C@@H]1CCCC(=O)N[C@@H](CCCNC(=N)N)C(=O)N[C@@H](CCCCN)C(=O)N2CCC[C@H]2C(=O)N[C@@H](Cc2c[nH]c3ccccc23)C(=O)N1)C(=O)O` (RKPW[Aad]L-OH; lactam N-5) displayed an inhibition constant (Ki) of 16 nM.

As to `CC(C)C[C@H](NC(=O)[C@@H]1CCC(=O)NCC(=O)N(C)[C@@H](CCCNC(=N)N)C(=O)N[C@@H](CCCCN)C(=O)N2CCCC2C(=O)N[C@@H](Cc2c[nH]c3ccccc23)C(=O)N1)C(=O)O` (stereo not given in full) (G[NMeR]K[ξP]WEL-OH; lactam N-6), in [3], the inhibition constant (Ki) is 3500 nM.

With `CC[C@H](C)[C@H](NC(=O)[C@@H]1Cc2ccc(cc2)OCCCCCC(=O)N[C@H](CCCNC(=N)N)C(=O)N2CCC[C@H]2C(=O)N1)C(=O)N[C@@H](CC(C)C)C(=O)O`, the inhibitory constant (Ki) in [4] was 450 nM.

Turning to `CC[C@H](C)[C@H](NC(=O)[C@@H]1Cc2ccc(O)c(c2)C/C=C/CNCCCC[C@H](N)C(=O)N[C@@H](CCCCN)C(=O)N2CCC[C@H]2C(=O)N1)C(=O)N[C@@H](CC(C)C)C(=O)O`, the affinity in [5] corresponds to a Ki of 11000 nM.

Turning to `CSCC[C@@H]1NC(=O)[C@H](CC(C)C)NC(=O)[C@H](CCCNC(=N)N)NC(=O)[C@H](CO)NC(=O)[C@@H]2CSSC[C@@H]3NC(=O)[C@H](CO)NC(=O)CNC(=O)[C@H]([C@@H](C)O)NC(=O)[C@H](CSSC[C@H](N)C(=O)N[C@@H](CCCCN)C(=O)NCC(=O)N[C@@H](CCCCN)C(=O)NCC(=O)N[C@@H](C)C(=O)N[C@@H](CCCCN)C(=O)N2)NC(=O)[C@H](CSSC[C@@H](C(N)=O)NC(=O)[C@H](CCCCN)NC(=O)CNC(=O)[C@H](CO)NC(=O)[C@H](CCCNC(=N)N)NC3=O)NC(=O)[C@H](CC(=O)O)NC(=O)[C@H](Cc2ccc(O)cc2)NC1=O` [ZICONOTIDE], the Activity result in [6], in series [7], in series [9], in series [11], in [12] and in series [13] was “Toxic” each time. For the same molecule, the result with Rattus norvegicus [8] and with Rattus norvegicus [10] was Active.

In turn, `CC[C@H](C)[C@H](NC(=O)[C@@H]1Cc2ccc(O)c(c2)C/C=C/CCCCCCC(=O)N[C@@H](CCCCN)C(=O)N2CCC[C@H]2C(=O)N1)C(=O)N[C@@H](CC(C)C)C(=O)O` yielded a Ki in [5] greater than 1 nM.
